# Measurements: ChEMBL document CHEMBL1201862, “PubChem BioAssay data set” (2004)
# Calls of active or inactive are those of the source.
# Key:
# [1] = molecular target: Cytochrome P450 2D6 (Homo sapiens, UniProt P10635);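 also: CYP2D6 member of a cytochrome P450 panel assay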
# [2] = molecular target: T1, Cytochrome P450 1A2 (Homo sapiens, UniProt P05177);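 also: PubChem cytochrome P450 panel assay, CYP1A2 panel member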
# T1 sequence (P05177 whole entry): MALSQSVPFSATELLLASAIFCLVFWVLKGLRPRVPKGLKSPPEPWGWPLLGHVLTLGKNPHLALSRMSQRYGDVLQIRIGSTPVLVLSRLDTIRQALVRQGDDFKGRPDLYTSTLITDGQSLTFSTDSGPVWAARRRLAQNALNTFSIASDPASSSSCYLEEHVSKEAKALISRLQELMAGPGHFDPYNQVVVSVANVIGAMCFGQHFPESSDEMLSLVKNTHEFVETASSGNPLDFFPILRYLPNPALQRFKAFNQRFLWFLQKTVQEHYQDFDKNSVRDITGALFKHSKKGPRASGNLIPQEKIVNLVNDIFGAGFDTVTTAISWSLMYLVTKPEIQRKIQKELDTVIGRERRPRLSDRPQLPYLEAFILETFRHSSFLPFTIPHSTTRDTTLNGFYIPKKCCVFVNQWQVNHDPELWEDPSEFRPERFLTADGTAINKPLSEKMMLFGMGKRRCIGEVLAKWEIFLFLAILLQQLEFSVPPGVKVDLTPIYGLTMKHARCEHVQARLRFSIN
# [3] = molecular target: T2, Phosphomannomutase 2 (Homo sapiens, UniProt O15305); test: Counter screen SAR assay for PMM2 inhibitors via a fluorescence intensity assay. [Related pubchem assays (depositor defined):AID1545, AID1574]
# T2 sequence (O15305 whole entry): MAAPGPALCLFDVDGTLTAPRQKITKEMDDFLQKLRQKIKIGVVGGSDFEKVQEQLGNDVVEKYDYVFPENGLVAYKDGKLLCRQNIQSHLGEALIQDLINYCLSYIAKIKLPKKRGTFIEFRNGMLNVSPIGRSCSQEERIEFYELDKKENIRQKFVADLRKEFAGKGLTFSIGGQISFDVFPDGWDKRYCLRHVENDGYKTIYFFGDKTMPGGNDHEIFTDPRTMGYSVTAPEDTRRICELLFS
# [4] = molecular target: T3, Phosphoethanolamine/phosphocholine phosphatase (Homo sapiens, UniProt Q8TCT1); test: SAR assay for compounds that inhibit PHOSPHO1. [Related pubchem assays (depositor defined):AID1545, AID1565, AID1574]
# T3 sequence (Q8TCT1 whole entry): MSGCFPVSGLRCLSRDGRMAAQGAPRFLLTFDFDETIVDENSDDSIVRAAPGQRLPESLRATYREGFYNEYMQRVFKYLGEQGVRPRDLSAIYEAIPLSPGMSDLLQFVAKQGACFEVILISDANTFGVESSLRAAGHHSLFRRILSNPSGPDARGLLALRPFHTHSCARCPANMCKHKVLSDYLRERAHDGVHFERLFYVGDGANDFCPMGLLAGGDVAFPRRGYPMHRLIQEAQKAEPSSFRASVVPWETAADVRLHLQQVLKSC
# [5] = molecular target: T4, Mannose-6-phosphate isomerase (Homo sapiens, UniProt P34949); test: phosphomannose isomerase inhibition – biochemical, fluorescence intensity, confirmation (AID 1535)
# T4 sequence (P34949 whole entry): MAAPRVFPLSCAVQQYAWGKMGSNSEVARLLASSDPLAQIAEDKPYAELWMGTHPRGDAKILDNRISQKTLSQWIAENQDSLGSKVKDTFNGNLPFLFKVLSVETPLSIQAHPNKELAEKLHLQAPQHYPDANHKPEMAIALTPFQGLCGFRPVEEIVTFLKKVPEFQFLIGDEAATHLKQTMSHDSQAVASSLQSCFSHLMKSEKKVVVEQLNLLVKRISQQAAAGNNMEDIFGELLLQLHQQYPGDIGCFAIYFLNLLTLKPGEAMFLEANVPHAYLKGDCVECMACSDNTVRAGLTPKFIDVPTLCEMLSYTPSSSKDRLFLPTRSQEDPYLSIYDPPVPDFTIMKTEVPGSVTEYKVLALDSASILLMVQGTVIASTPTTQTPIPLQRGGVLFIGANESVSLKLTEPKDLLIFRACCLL
# [6] = molecular target: T5, CAAX prenyl protease 2 (Saccharomyces cerevisiae S288c, UniProt Q03530); type: biochemical
# T5 sequence (Q03530 whole entry): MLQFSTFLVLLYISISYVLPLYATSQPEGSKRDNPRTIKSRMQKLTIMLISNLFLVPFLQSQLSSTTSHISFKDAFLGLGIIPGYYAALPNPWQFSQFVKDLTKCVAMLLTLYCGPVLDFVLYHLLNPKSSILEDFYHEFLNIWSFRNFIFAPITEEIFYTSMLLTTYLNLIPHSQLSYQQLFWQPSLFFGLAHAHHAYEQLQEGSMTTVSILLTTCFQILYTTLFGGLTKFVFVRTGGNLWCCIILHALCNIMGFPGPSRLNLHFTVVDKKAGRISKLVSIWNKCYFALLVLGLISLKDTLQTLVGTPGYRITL
# [7] = molecular target: T6, Voltage-gated N-type calcium channel alpha-1B subunit/Amyloid beta A4 precursor protein-binding family A member 1 (Homo sapiens, UniProt Q00975+Q02410); type: protein assay
# [8] = molecular target: T6, Voltage-gated N-type calcium channel alpha-1B subunit/Amyloid beta A4 precursor protein-binding family A member 1; type: protein assay; remark: listed apart in the source
# [9] = viability loss of HMLE_sh_eGFP cells – cell-based, luminescence, counter-screen for HMLE_sh_ECad selective toxicity project, dose response (AID 463074); type: functional, Homo sapiens;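 also: HMLE human mammary epithelial cells expressing control shRNA against eGFP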
# [10] = Luminescence Cell-Based Dose Retest to Confirm Inhibitors of Cancer Stem Cells. [Related pubchem assays (depositor defined):AID2717, AID2721]; type: functional; settings: Homo sapiens
# [11] = tested on: Escherichia coli; test: microbe, parasite or virus in culture
# [12] = molecular target: Intestinal-type alkaline phosphatase (Homo sapiens, UniProt P09923); test: inhibition of human intestinal alkaline phosphatase – biochemical, dose response (AID 488876); type: functional
# [13] = molecular target: Intestinal-type alkaline phosphatase (Mus musculus, UniProt P24822); test: PubChem AID 488785; type: functional
# [14] = molecular target: T7, Alkaline phosphatase, tissue-nonspecific isozyme (Homo sapiens, UniProt P05186); test: TNAP enzyme inhibition by screening hits, dose response, selectivity assay for mouse IAP inhibitor project, biochemical, human TNAP, uHTS hits (AID 488906); type: functional
# T7 sequence (P05186 whole entry): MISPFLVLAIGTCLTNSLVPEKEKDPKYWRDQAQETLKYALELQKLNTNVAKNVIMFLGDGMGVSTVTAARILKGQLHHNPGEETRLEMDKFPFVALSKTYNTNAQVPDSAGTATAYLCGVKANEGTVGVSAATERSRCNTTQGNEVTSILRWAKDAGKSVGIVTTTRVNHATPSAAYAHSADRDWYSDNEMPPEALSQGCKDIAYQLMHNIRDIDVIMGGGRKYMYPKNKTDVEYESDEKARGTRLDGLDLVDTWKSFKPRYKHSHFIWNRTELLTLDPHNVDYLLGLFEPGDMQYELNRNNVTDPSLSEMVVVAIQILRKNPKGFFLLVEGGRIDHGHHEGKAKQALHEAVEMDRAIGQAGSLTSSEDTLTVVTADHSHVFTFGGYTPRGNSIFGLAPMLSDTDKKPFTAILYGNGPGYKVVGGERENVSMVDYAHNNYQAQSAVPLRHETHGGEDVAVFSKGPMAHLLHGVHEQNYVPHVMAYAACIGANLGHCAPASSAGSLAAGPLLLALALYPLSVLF
# [15] = molecular target: Peroxisome proliferator-activated receptor gamma/Nuclear receptor coactivator 3 (Homo sapiens, UniProt P37231); test: (§1) TR-FRET dose response biochemical High Throughput Screening assay for agonists of the steroid receptor coactivator 3 (SRC-3) recruitment by the peroxisome proliferator-activated receptor gamma (PPAR gamma): non-selective agonists. [Related pubchem assays: 1301 (Confirmation screen.), 1048 (Primary screen.)]; type: functional
# [16] = molecular target: Trypsin (Sus scrofa, UniProt P00761); test: trypsin protease activity blockade – biochemical, quenched peptide fluorescence, cherry-pick, selectivity assay for Rce1 protease inhibitor project, dose response (AID 488789)
# [17] = molecular target: Peroxisome proliferator-activated receptor gamma/Nuclear receptor coactivator 1 (Homo sapiens, UniProt P37231); test: as §1, with “1 (SRC-1)” for “3 (SRC-3)”, “assays (depositor defined):AID1300, AID1808, AID504735, AID631]” for “assays: 1301 (Confirmation screen.), 1048 (Primary screen.)]”; type: protein assay
# [18] = molecular target: Peroxisome proliferator-activated receptor gamma/Nuclear receptor coactivator 2 (Homo sapiens, UniProt P37231); test: TR-FRET dose response biochemical High Throughput Screening assay for agonists of the steroid receptor coactivator 2 (SRC-2) recruitment by the peroxisome proliferator-activated receptor gamma (PPAR gamma): non-selective agonists. [Related pubchem assays: 1297, 1032 ]; type: functional
# [19] = molecular target: Cytochrome P450 2C19 (Homo sapiens, UniProt P33261); test: Cytochrome panel assay with activity outcomes. Panel member name: p450-cyp2c19 Compounds with AC50 equal or less than 10 uM are considered active; type: functional
# [20] = tested on: Streptococcus sp. 'group A'; test: Streptococcus pyogenes SK(-)GAS viability under kanamycin – luminescence, BacTiterGlo, confirmation, counter-screen for streptokinase expression inhibitor project, dose response (AID 1900); type: functional, organism-based
# [21] = tested on: Streptococcus; test: GAS UMAA2166 growth inhibition – luminescence, BacTiterGlo, counter-screen for streptokinase expression inhibitor project, dose response (AID 1915); type: functional, organism-based;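 also: potency for reduction of bacterial viability or growth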
# [22] = molecular target: T8, Streptokinase A (Streptococcus pyogenes serotype M1, UniProt P10520); test: viability-normalized secreted streptokinase activity reduction – plasminogen activation absorbance, OD405, dose response (AID 1914); type: functional, Streptococcus pyogenes M1 GAS;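 also: secreted streptokinase activity via plasminogen activation per viability signal from cell pellet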
# T8 sequence (P10520 whole entry): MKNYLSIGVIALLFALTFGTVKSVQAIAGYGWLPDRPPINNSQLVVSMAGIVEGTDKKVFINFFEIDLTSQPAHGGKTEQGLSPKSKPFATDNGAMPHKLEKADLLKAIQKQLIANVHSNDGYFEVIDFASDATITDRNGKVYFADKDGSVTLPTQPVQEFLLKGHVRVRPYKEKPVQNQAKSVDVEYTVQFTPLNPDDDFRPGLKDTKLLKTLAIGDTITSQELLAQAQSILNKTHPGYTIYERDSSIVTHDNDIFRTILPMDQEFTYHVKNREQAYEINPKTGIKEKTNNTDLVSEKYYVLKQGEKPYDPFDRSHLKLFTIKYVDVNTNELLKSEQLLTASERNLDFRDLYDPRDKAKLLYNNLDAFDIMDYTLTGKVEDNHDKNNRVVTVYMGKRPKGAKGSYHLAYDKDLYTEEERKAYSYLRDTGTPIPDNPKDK
# [23] = tested on: Vero; test: cells; type: functional, cell-based; settings: Chlorocebus sabaeus
# T6 sequence (Q00975 whole entry): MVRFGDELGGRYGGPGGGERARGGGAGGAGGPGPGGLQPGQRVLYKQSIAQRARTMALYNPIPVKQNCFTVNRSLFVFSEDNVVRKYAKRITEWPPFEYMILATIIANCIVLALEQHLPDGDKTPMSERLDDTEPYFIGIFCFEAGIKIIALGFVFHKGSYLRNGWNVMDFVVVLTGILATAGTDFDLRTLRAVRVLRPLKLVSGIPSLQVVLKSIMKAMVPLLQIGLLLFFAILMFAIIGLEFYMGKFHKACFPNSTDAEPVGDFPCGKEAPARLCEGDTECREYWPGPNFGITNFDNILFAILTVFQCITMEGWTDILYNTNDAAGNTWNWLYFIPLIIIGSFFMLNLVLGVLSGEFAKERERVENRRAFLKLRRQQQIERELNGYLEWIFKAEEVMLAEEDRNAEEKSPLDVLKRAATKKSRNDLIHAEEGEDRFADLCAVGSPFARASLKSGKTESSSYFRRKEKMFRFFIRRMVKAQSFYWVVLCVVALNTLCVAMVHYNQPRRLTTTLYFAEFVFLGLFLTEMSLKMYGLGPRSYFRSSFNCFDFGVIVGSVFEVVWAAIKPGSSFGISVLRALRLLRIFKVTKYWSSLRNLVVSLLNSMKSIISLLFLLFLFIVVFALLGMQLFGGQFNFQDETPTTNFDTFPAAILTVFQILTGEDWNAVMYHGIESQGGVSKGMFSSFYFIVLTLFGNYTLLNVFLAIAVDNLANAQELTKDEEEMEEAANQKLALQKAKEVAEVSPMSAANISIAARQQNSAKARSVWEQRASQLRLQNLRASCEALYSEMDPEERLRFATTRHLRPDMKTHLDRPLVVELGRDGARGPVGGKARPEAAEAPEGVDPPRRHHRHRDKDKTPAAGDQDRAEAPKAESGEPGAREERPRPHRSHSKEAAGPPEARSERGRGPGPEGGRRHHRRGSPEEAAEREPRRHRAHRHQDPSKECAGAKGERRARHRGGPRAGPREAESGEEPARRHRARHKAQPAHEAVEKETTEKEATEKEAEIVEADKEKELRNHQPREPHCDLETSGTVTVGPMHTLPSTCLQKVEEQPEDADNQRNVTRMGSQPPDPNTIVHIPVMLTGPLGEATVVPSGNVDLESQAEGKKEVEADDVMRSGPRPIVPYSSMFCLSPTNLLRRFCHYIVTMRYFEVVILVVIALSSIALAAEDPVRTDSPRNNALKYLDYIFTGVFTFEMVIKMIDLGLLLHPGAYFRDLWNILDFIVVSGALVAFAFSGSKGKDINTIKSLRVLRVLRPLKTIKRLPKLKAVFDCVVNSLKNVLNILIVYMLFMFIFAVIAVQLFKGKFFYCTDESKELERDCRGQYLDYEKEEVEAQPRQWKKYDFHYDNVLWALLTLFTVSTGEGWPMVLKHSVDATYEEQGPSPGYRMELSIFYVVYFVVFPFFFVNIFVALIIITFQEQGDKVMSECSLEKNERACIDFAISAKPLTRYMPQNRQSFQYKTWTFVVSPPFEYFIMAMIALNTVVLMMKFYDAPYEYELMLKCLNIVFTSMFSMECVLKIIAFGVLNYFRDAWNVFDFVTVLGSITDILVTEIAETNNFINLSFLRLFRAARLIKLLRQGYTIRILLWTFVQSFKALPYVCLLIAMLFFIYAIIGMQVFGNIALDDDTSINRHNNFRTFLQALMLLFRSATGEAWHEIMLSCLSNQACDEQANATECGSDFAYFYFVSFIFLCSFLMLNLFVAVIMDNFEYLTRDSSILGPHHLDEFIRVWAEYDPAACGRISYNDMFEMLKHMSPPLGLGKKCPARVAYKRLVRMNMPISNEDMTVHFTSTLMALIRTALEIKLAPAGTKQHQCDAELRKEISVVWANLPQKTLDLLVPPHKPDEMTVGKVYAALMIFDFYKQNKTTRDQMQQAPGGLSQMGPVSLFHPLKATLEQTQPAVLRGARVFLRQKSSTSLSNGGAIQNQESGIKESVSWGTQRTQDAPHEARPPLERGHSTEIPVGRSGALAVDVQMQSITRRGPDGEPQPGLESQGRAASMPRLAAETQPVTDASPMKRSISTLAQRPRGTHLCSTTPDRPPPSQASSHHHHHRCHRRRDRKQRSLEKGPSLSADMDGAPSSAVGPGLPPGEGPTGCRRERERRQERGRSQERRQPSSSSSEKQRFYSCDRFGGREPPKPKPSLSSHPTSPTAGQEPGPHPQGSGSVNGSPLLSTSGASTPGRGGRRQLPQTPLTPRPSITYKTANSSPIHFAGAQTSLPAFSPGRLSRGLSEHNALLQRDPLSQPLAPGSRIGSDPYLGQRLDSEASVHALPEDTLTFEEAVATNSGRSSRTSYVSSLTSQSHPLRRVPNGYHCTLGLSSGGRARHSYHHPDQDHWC
# T6 sequence (Q02410 whole entry): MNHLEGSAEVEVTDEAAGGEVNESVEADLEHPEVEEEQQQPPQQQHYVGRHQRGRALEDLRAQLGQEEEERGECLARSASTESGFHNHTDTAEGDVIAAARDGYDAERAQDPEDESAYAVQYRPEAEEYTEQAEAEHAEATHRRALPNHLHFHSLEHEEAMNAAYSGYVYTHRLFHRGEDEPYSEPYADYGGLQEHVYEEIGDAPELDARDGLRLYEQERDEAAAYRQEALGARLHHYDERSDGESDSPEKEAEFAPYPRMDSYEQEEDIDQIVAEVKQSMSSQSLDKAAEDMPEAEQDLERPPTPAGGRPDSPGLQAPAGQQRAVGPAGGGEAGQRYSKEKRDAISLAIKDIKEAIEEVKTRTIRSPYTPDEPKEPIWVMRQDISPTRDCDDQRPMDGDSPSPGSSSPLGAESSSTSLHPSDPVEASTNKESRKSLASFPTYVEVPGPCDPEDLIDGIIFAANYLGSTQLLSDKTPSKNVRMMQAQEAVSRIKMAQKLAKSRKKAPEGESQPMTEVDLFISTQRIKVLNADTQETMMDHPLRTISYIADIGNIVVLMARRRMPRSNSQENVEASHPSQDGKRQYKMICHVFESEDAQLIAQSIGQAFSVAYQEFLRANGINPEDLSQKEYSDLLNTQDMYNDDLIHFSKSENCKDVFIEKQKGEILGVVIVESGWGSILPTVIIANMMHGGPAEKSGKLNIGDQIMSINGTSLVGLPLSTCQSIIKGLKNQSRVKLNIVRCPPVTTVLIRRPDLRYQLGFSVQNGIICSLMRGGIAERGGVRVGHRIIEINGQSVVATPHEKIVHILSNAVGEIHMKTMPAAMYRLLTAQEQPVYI
# Cytochrome P450 2D6, sequence (P10635 whole entry): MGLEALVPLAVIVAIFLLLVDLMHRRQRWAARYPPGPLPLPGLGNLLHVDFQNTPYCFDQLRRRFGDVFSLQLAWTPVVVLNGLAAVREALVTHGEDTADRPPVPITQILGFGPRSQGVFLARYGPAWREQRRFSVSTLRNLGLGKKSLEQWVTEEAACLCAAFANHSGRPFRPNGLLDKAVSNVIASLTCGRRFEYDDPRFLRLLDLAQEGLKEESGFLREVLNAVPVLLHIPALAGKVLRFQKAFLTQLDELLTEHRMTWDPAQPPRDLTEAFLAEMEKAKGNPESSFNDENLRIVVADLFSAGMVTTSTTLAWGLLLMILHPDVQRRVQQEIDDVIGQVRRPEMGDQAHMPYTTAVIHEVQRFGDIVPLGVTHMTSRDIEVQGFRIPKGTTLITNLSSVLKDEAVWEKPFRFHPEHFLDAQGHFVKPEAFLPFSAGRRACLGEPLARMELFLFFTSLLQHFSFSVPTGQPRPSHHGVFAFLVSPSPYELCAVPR
# Intestinal-type alkaline phosphatase (Mus musculus, UniProt P24822), sequence (P24822 whole entry): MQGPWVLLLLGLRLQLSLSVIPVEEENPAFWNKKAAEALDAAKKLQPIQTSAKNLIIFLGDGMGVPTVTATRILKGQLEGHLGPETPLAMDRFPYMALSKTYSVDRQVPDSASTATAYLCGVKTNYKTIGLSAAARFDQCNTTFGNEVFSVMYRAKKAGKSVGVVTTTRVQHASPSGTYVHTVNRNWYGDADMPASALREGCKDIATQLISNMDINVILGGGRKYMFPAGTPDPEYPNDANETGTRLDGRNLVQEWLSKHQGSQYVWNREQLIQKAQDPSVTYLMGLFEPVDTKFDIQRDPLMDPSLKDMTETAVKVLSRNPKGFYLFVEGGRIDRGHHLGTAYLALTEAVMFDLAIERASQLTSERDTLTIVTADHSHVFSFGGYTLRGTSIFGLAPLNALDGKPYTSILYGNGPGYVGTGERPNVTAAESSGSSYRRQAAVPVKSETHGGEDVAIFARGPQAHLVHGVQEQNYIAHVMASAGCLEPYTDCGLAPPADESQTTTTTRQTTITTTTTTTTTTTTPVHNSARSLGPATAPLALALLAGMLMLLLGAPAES
# Intestinal-type alkaline phosphatase (Homo sapiens, UniProt P09923), sequence (P09923 whole entry): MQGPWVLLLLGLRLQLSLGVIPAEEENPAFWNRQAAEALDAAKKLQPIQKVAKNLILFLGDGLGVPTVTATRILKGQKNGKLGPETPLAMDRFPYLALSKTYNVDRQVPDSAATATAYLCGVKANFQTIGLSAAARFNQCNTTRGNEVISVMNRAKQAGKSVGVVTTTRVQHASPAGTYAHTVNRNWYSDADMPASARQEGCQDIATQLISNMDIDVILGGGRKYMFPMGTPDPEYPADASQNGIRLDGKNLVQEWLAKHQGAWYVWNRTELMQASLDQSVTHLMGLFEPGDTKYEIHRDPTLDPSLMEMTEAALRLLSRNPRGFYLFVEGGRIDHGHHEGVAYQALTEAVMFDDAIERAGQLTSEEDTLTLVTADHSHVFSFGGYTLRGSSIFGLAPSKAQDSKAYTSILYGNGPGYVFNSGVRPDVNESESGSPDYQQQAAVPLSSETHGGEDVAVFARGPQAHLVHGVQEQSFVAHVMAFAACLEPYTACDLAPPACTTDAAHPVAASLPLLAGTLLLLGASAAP
# Trypsin, sequence (P00761 whole entry): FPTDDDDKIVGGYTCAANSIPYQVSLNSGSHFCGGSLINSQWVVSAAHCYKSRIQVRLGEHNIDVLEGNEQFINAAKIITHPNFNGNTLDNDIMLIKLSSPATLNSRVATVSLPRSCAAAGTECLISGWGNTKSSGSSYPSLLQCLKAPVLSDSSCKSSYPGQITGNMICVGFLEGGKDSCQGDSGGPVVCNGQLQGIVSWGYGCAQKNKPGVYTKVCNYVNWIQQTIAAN
smiles,measurement,setting,value
COc1ccc2c(c1)c(CC(=O)O)c(C)n2C(=O)c1ccccc1,AC50,[1],inconclusive
same,AC50,[2],12.6 µM (inconclusive)
Cc1cccc(-n2sc3ccccc3c2=O)c1,IC50,[3],22.3 µM (active)
same,IC50,[4],2.73 µM (inactive)
same,IC50,[5],5.29 µM (active)
COCc1c(C(=O)N/N=C/C2CC=CCC2)nnn1-c1nonc1N (centres undefined),AC50,[6],29.9 µM (active)
Cc1cccnc1NC(=S)Nc1ccc(F)cc1F,IC50,[7],11.5 µM (active)
same,IC50,[8],> 50 µM (inactive)
C=CCn1/c(=N/C(=O)c2ccc(S(=O)(=O)N3CCCc4ccccc43)cc2)sc2cc(S(N)(=O)=O)ccc21,AC50,[9],84.8 µM (active)
same,AC50,[10],2.01 µM (active)
CCOC(=O)C1(Cc2cccc(F)c2)CCN(C2CCOCC2)CC1,AC50,[11],35.1 µM (active)
CCOC(=O)c1sc(-c2ccccc2)cc1NC(=O)Nc1ccc([N+](=O)[O-])cc1,AC50,[11],35 µM (active)
COc1ccc(N2CC(C(=O)Nc3cc(C)on3)CC2=O)cc1 (centres undefined),AC50,[1],inconclusive
Cc1ccc(C)c(NS(=O)(=O)c2ccc3[nH]c(=O)oc3c2)c1,IC50,[12],> 100 µM (inactive)
same,IC50,[13],15.7 µM (active)
same,IC50,[14],> 100 µM (inactive)
Cc1c(Cl)cccc1-n1sc2cc([N+](=O)[O-])cc(OCC(F)(F)F)c2c1=O,IC50,[3],9.06 µM (active)
same,IC50,[4],0.555 µM (active)
same,IC50,[5],3.03 µM (active)
O=C(CSc1ccc2ccccc2c1Br)Nc1cccc(S(=O)(=O)NC2=NCCCCC2)c1,AC50,[9],48 µM (active)
same,AC50,[10],1.92 µM (active)
S=c1[nH]nc(-c2ccccc2)o1,EC50,[15],> 79.4 µM (not active)
same,AC50,[16],13.3 µM (active)
same,EC50,[17],16.2 µM (inactive)
same,EC50,[18],8.1 µM (active)
CCOC(=O)c1cc(-c2ccc(F)cc2)nc2c1c(=O)[nH]c(=O)n2Cc1ccccc1,IC50,[7],> 56.8 µM (not active)
same,IC50,[8],> 50 µM (inactive)
CC1CCN(C(=O)c2cc3nc(-c4ccccc4)cc(-c4ccccc4)n3n2)CC1,AC50,[6],19.1 µM (active)
same,AC50,[16],> 100 µM (inactive)
COc1cccc(S(=O)(=O)NCc2ccc(C(=O)Nc3ccc(Cl)cc3)cc2)c1,AC50,[9],102 µM (active)
same,AC50,[10],35 µM (active)
Cc1cccc(-n2sc3cc(F)ccc3c2=O)c1C,IC50,[3],18.3 µM (active)
same,IC50,[4],6.54 µM (inactive)
same,IC50,[5],22.7 µM (active)
CN(C)CCNC(=O)C1CCCNC1=O (centres undefined),AC50,[19],inconclusive
same,AC50,[1],inconclusive
C=CCN(CC=C)S(=O)(=O)c1ccc(NC(=S)NC(=O)C2CC2)cc1,EC50,[20],> 150 µM (not active)
same,EC50,[21],> 150 µM (not active)
same,EC50,[22],> 150 µM (not active)
same,AC50,[11],29.4 µM (active)
CCCn1cnc2c(SCc3ccccc3Cl)nc(N)nc21,IC50,[23],> 25 µM (active)
FC(F)Oc1ccc(NC(S)=NC2CCSc3ccccc32)cc1 (centres undefined),IC50,[12],> 100 µM (inactive)
same,IC50,[13],5.64 µM (active)
same,IC50,[14],> 100 µM (inactive)
